Data from patent US20030083271A1, “Topoisomerase I selective cytotoxic sugar derivatives of indolopyrrolocarbazoles” (priority 2001, published 2003).
Marks after values point to notes of the source that are not given here.

Key:
[1] = target: T1, purified human topoisomerase I (Homo sapiens, UniProt P11387); assay: Topoisomerase I-mediated single strand DNA break induction (in vitro); format: biochemical; conditions: median effect concentration for inducing single-strand breaks in the DNA substrate; read-out: Topo I EC50
T1 construct: purchased Topogen
T1 sequence (P11387 1-765): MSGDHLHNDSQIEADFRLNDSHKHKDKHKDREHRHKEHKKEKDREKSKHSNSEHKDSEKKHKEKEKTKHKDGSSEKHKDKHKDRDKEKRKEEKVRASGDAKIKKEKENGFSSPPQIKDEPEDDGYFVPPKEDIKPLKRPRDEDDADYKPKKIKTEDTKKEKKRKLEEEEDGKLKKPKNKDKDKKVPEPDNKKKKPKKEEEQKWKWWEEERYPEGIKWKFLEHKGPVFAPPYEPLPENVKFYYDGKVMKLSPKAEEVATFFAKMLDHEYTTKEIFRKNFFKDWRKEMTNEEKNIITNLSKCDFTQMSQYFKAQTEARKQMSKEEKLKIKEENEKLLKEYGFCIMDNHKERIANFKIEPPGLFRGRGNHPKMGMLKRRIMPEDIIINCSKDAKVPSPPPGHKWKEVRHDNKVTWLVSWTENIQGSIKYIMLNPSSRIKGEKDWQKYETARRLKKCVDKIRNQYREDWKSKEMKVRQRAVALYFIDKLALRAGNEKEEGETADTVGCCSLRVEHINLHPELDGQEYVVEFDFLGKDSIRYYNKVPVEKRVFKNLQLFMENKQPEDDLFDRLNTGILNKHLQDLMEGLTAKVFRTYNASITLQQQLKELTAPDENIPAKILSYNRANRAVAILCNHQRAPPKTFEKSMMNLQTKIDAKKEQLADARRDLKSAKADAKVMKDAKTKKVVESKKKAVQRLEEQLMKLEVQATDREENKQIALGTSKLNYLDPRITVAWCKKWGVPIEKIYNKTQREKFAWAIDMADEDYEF
Method in brief: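 Supercoiled PM2 DNA incubated with compound dilutions and 1000 units purified human topoisomerase I, 30 min at 37° C; stopped with SDS/proteinase K. Products separated on ethidium-stained agarose gel, quantified by densitometry as % single-strand breaks; EC50 interpolated from dose-effect curve.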

HCT-116 colon carcinoma = assay: In vivo antitumor activity, HCT-116 xenograft; parameters: species or system Balb/c athymic (nude) female mice; conditions: for LCK (gross log cell kill): HT116 sc xenograft in nude mice, at optimal or maximum tolerated dose, CPT-11 run as comparator in same experiment; for MTD (optimal or maximum tolerated dose level tested): HT116 xenograft experiment, nude mice
Procedure: (§1) Compounds: Examples of this invention were administered in an appropriate vehicle such as cremophor/ethanol/water (10%/10%/80%), in normal saline, water/carboxymethylcellulose vehicle.
(§2) All compounds were tested at several dose levels, with attempts each time to achieve their maximum tolerated dose (MTD). […] The optimal dose (OD) was the dose producing the best therapeutic effect, and was usually, but not always, synonymous with the MTD.
(§3) Tumors: Human tumors (HCT-116 and HT-29 colon carcinomas) were grown as xenografts in Balb/c athymic (nude) female mice. Antitumor assays. All tumors were implanted subcutaneously (sc) as 3-4mm fragments using a 13 gauge trochar. There were generally eight mice per treatment and control group. When treatment was delayed until tumors had obtained a certain size (weight), referred to as a staged tumor experiment (expt.), tumor-bearing mice were selected so that their tumors fell within a limited range of sizes for the particular expt.
(§4) Tumors were measured by calipers, and tumor weight calculated by the formula length (mm) times (×) width (mm)^2/2=tumor weight (mg). The median time (in days) to reach a predetermined tumor target size (for example, 500 mg) for untreated, control (C) mice relative to the time to reach the same target size for treated (T) mice, was calculated as a T-C value. T-C values were divided by the tumor volume doubling time (TVDT), and multiplied by 3.32, to yield a gross log cell kill (LCK) value, [i.e., (T-C)/TVDT×3.32=LCK].
(§5) A mouse was considered cured if there was no palpable tumor after a period of time equal to 10×TVDT post-reatment (Rx).

HT-29 colon carcinoma = assay: In vivo antitumor activity, HT-29 xenograft; parameters: species or system Balb/c athymic (nude) female mice; conditions: for LCK (gross log cell kill): HT29 sc xenograft in nude mice, at optimal or maximum tolerated dose, CPT-11 run as comparator in same experiment; for MTD (optimal or maximum tolerated dose level tested): HT29 xenograft experiment, nude mice
Procedure: as §1, §2, §3, §4, §5

| SMILES | EC50 [1] [nM] | LCK (gross log cell kill) (HCT-116 colon carcinoma) | MTD (optimal or maximum tolerated dose level tested) (HCT-116 colon carcinoma) [mpkpi] | LCK (gross log cell kill) (HT-29 colon carcinoma) | MTD (optimal or maximum tolerated dose level tested) (HT-29 colon carcinoma) [mpkpi] |
| --- | --- | --- | --- | --- | --- |
| O=C1NC(=O)c2c1c1c3cc(F)c(F)cc3sc1c1c2c2cc(F)c(F)cc2n1[C@@H]1O[C@H](CF)[C@@H](F)[C@H](O)[C@H]1O [Example 26, 12-[4,6-Difluoro-4,6-dideoxy-β-D-glucopyranosyl]-2,3,9,10-tetrafluoro-5H, 13H-benzo[b]thienyl[2,3-a]pyrrolo[3,4-c]carbazole-5,7(6H)-dione] | 130 | >3.4 | >9 | 1.4 | >9 |
| O=C1NC(=O)c2c1c1c3cc(F)c(F)cc3sc1c1c2c2cc(F)c(F)cc2n1[C@@H]1O[C@H](CO)[C@@H](F)[C@H](O)[C@H]1O [Example 33, 12-[4-Deoxy-4-fluoro-β-D-glucopyranosyl]-2,3,9,10-tetrafluoro-5H,13H-benzo[b]thienyl[2,3-a]pyrrolo[3,4-c]carbazole-5,7(6H)-dione] | 50 | 2.3 | 10 | >2.3^b | 11 |
| O=C1NC(=O)c2c1c1c3cc(F)ccc3[nH]c1c1c2c2cc(F)ccc2n1[C@@H]1O[C@H](CO)[C@@H](F)[C@H](O)[C@H]1O [Example 24, 12-[4-Deoxy-4-fluoro-β-D-glucopyranosyl]-3,9-difluoro-12,13-dihydro-5H-indolo[2,3-a]pyrrolo[3,4-c]carbazole-5,7(6H)-dione] | 20 | 1.3 | 10 | 2.1 | 15 |
| O=C1NC(=O)c2c1c1c3cc(F)c(F)cc3sc1c1c2c2cc(F)c(F)cc2n1[C@@H]1O[C@H](CF)C[C@H](O)[C@H]1O [Example 9, 12-[4,6-Dideoxy-6-fluoro-β-D-glucopyranosyl]-2,3,9,10-tetrafluoro-5H, 13H-benzo[b]thienyl[2,3-a]pyrrolo[3,4-c]carbazole-5,7(6H)-dione] | 230 | >3.4 | >22 | >1.4 | >22 |
| O=C1NC(=O)c2c1c1c3cc(F)ccc3[nH]c1c1c2c2cc(F)ccc2n1[C@@H]1O[C@H](CF)[C@@H](F)[C@H](O)[C@H]1O [Example 27] | 150 | >1.4^c | 8 | 1.9^a | 11 |
